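All cell lines were grown in 96-well plates and treated with compound for 48 hours. GI50 is the concentration that inhibits growth by half. TGI is the concentration that stops growth completely.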
How the values were obtained:
Experiment in all cases: NCI tumour cell line growth inhibition, 48 h
IGROV1 ovarian = system: IGROV1 ovarian
A498 renal = system: A498 renal
SNB-75 CNS = system: SNB-75 CNS
MCF7 breast = system: MCF7 breast
SK-MEL-5 melanoma = system: SK-MEL-5 melanoma
DU-145 prostate = system: DU-145 prostate
UO-31 renal = system: UO-31 renal
NCI-H522 lung = system: NCI-H522 lung
MDA-MB-435 = system: MDA-MB-435
HL-60(TB) leukemia = system: HL-60(TB) leukemia
SF-539 CNS = system: SF-539 CNS
PC-3 prostate = system: PC-3 prostate
EKVX NSCLC = system: EKVX NSCLC
OVCAR-8 ovarian = system: OVCAR-8 ovarian
CAKI-1 renal = system: CAKI-1 renal
UACC-257 melanoma = system: UACC-257 melanoma
SF-295 CNS = system: SF-295 CNS
SNB-19 CNS = system: SNB-19 CNS
HS 578T breast = system: HS 578T breast
A549 NSCLC = system: A549 NSCLC
HCT-15 colon = system: HCT-15 colon
786-0 renal = system: 786-0 renal
OVCAR-3 ovarian = system: OVCAR-3 ovarian
HCT-116 colon = system: HCT-116 colon
SK-MEL-28 melanoma = system: SK-MEL-28 melanoma
OVCAR-4 ovarian = system: OVCAR-4 ovarian
HOP-62 NSCLC = system: HOP-62 NSCLC
HOP-92 NSCLC = system: HOP-92 NSCLC
HT29 colon = system: HT29 colon
UACC-62 melanoma = system: UACC-62 melanoma
OVCAR-5 ovarian = system: OVCAR-5 ovarian
K-562 leukemia = system: K-562 leukemia
NCI/ADR-RES ovarian = system: NCI/ADR-RES ovarian
MDA-MB-231 breast = system: MDA-MB-231 breast
KM12 colon = system: KM12 colon
NCI-H460 lung = system: NCI-H460 lung
ACHN renal = system: ACHN renal
COLO 205 colon = system: COLO 205 colon
SK-MEL-2 melanoma = system: SK-MEL-2 melanoma
SR leukemia = system: SR leukemia
SK-OV-3 ovarian = system: SK-OV-3 ovarian
MOLT-4 leukemia = system: MOLT-4 leukemia
TK-10 renal = system: TK-10 renal
T-47D breast = system: T-47D breast
NCI-H226 lung = system: NCI-H226 lung
SF-268 CNS = system: SF-268 CNS
MALME-3M melanoma = system: MALME-3M melanoma
U251 CNS = system: U251 CNS
HCC-2998 colon = system: HCC-2998 colon
LOX IMVI melanoma = system: LOX IMVI melanoma
SN12C renal = system: SN12C renal
SW-620 colon = system: SW-620 colon
RPMI-8226 leukemia = system: RPMI-8226 leukemia
NCI-H23 lung = system: NCI-H23 lung
BT-549 breast = system: BT-549 breast
CCRF-CEM leukemia = system: CCRF-CEM leukemia
RXF 393 renal = system: RXF 393 renal
M14 melanoma = system: M14 melanoma

## CC(=O)O[C@H](C[C@H](C(C)C)N(C)C(=O)[C@@H](NC(=O)[C@H]1CCCCN1C)C(C)C)c1nc(C(=O)N[C@@H](Cc2ccccc2)C[C@H](C)C(=O)O)c(CCOCc2ccccc2)s1
IGROV1 ovarian
  GI50: 1.09 nM
  TGI: > 10000 nM
A498 renal
  GI50: < 1 nM
  TGI: 3.16 nM
SNB-75 CNS
  GI50: < 1 nM
  TGI: 5670 nM
MCF7 breast
  GI50: < 1 nM
  TGI: > 10000 nM
SK-MEL-5 melanoma
  GI50: < 1 nM
  TGI: 1.59 nM
DU-145 prostate
  GI50: < 1 nM
  TGI: 1.19 nM
UO-31 renal
  GI50: 4.86 nM
  TGI: > 10000 nM
NCI-H522 lung
  GI50: < 1 nM
  TGI: < 1 nM
MDA-MB-435
  GI50: < 1 nM
  TGI: < 1 nM
HL-60(TB) leukemia
  GI50: < 1 nM
  TGI: < 1 nM
SF-539 CNS
  GI50: < 1 nM
  TGI: 1.74 nM
PC-3 prostate
  GI50: < 1 nM
  TGI: > 10000 nM
EKVX NSCLC
  GI50: < 1 nM
  TGI: > 10000 nM
OVCAR-8 ovarian
  GI50: < 1 nM
  TGI: > 10000 nM
CAKI-1 renal
  GI50: < 1 nM
  TGI: > 10000 nM
UACC-257 melanoma
  GI50: < 1 nM
  TGI: > 10000 nM
SF-295 CNS
  GI50: < 1 nM
  TGI: < 29.7 nM
SNB-19 CNS
  GI50: < 1 nM
  TGI: > 10000 nM
HS 578T breast
  GI50: < 1 nM
  TGI: > 10000 nM
A549 NSCLC
  GI50: < 1 nM
  TGI: > 10000 nM
HCT-15 colon
  GI50: < 1 nM
  TGI: > 10000 nM
786-0 renal
  GI50: < 1 nM
  TGI: > 10000 nM
OVCAR-3 ovarian
  GI50: < 1 nM
HCT-116 colon
  GI50: < 1 nM
  TGI: 176 nM
SK-MEL-28 melanoma
  GI50: 797 nM
  TGI: > 10000 nM
OVCAR-4 ovarian
  GI50: 2.42 nM
  TGI: > 10000 nM
HOP-62 NSCLC
  GI50: < 1 nM
  TGI: > 10000 nM
HOP-92 NSCLC
  GI50: < 1 nM
  TGI: > 10000 nM
HT29 colon
  GI50: < 1 nM
  TGI: > 10000 nM
UACC-62 melanoma
  GI50: < 1 nM
  TGI: > 10000 nM
OVCAR-5 ovarian
  GI50: < 1 nM
  TGI: > 10000 nM
K-562 leukemia
  GI50: < 1 nM
  TGI: > 10000 nM
NCI/ADR-RES ovarian
  GI50: 3 nM
  TGI: 51.1 nM
MDA-MB-231 breast
  GI50: < 1 nM
KM12 colon
  GI50: < 1 nM
NCI-H460 lung
  GI50: < 1 nM
  TGI: > 10000 nM
ACHN renal
  GI50: 1.05 nM
  TGI: > 10000 nM
COLO 205 colon
  GI50: < 1 nM
  TGI: < 1 nM
SK-MEL-2 melanoma
  GI50: < 1 nM
  TGI: > 5680 nM
SR leukemia
  GI50: < 1 nM
  TGI: > 10000 nM
SK-OV-3 ovarian
  GI50: < 1 nM
  TGI: > 10000 nM
MOLT-4 leukemia
  GI50: < 1 nM
  TGI: > 10000 nM
TK-10 renal
  GI50: 108 nM
  TGI: > 10000 nM
T-47D breast
  GI50: < 1 nM
  TGI: > 10000 nM
NCI-H226 lung
  GI50: < 1 nM
  TGI: 3.13 nM
SF-268 CNS
  GI50: < 1 nM
  TGI: > 10000 nM
MALME-3M melanoma
  GI50: < 1 nM
  TGI: > 10000 nM
U251 CNS
  GI50: < 1 nM
HCC-2998 colon
  GI50: < 1 nM
  TGI: 616 nM
LOX IMVI melanoma
  GI50: < 1 nM
  TGI: > 10000 nM
SN12C renal
  GI50: < 1 nM
  TGI: > 10000 nM
SW-620 colon
  GI50: < 1 nM
  TGI: > 10000 nM
RPMI-8226 leukemia
  GI50: < 1 nM
  TGI: > 10000 nM
NCI-H23 lung
  GI50: < 1 nM
  TGI: > 10000 nM
BT-549 breast
  GI50: < 1 nM
  TGI: 8.16 nM
CCRF-CEM leukemia
  GI50: < 1 nM
  TGI: > 10000 nM

## COc1cc(C2=C(c3cn(C)c4ccccc34)COC2=O)cc(OC)c1OC
IGROV1 ovarian
  GI50: 77.1 nM
  TGI: 21700 nM
A498 renal
  GI50: 17.1 nM
  TGI: 109 nM
SNB-75 CNS
  GI50: 43.8 nM
  TGI: 522 nM
MCF7 breast
  GI50: 27.4 nM
  TGI: > 19800 nM
SK-MEL-5 melanoma
  GI50: 77.3 nM
  TGI: 1400 nM
DU-145 prostate
  GI50: 211 nM
  TGI: > 100000 nM
UO-31 renal
  GI50: 226 nM
  TGI: 6370 nM
NCI-H522 lung
  GI50: 48.5 nM
  TGI: 716 nM
MDA-MB-435
  GI50: 24.4 nM
  TGI: 87.5 nM
HL-60(TB) leukemia
  GI50: 42.5 nM
  TGI: 1460 nM
SF-539 CNS
  GI50: 106 nM
  TGI: 932 nM
PC-3 prostate
  GI50: 125 nM
  TGI: 53800 nM
EKVX NSCLC
  GI50: 121 nM
  TGI: 5420 nM
OVCAR-8 ovarian
  GI50: 338 nM
  TGI: > 23600 nM
CAKI-1 renal
  GI50: 53.1 nM
  TGI: 3420 nM
SNB-19 CNS
  GI50: 160 nM
  TGI: > 100000 nM
HS 578T breast
  GI50: 159 nM
  TGI: 3580 nM
A549 NSCLC
  GI50: 100 nM
  TGI: > 25600 nM
HCT-15 colon
  GI50: 41.6 nM
  TGI: 2280 nM
786-0 renal
  GI50: 317 nM
  TGI: > 32800 nM
OVCAR-3 ovarian
  GI50: 36.4 nM
  TGI: 437 nM
HCT-116 colon
  GI50: 39.6 nM
SK-MEL-28 melanoma
  GI50: 754 nM
  TGI: 29800 nM
OVCAR-4 ovarian
  GI50: 1270 nM
  TGI: > 52600 nM
HOP-62 NSCLC
  GI50: 123 nM
  TGI: > 34800 nM
HOP-92 NSCLC
  GI50: 249 nM
  TGI: 4910 nM
HT29 colon
  GI50: 38.3 nM
OVCAR-5 ovarian
  GI50: 479 nM
  TGI: > 100000 nM
K-562 leukemia
  GI50: 37 nM
  TGI: > 100000 nM
NCI/ADR-RES ovarian
  GI50: 46.4 nM
  TGI: 2070 nM
MDA-MB-231 breast
  GI50: 340 nM
  TGI: > 100000 nM
NCI-H460 lung
  GI50: 53.2 nM
  TGI: 1680 nM
COLO 205 colon
  GI50: 64.8 nM
  TGI: 1280 nM
SK-MEL-2 melanoma
  GI50: 56.2 nM
  TGI: 18500 nM
SR leukemia
  GI50: 21.9 nM
  TGI: > 100000 nM
SK-OV-3 ovarian
  GI50: 269 nM
MOLT-4 leukemia
  GI50: 55 nM
  TGI: > 28200 nM
TK-10 renal
  GI50: 569 nM
  TGI: 5610 nM
T-47D breast
  GI50: 60.4 nM
  TGI: 8650 nM
NCI-H226 lung
  GI50: 1100 nM
  TGI: 7300 nM
SF-268 CNS
  GI50: 802 nM
  TGI: 7410 nM
MALME-3M melanoma
  GI50: 474 nM
  TGI: 14700 nM
U251 CNS
  GI50: 73.1 nM
  TGI: > 100000 nM
HCC-2998 colon
  GI50: 429 nM
  TGI: 5200 nM
RXF 393 renal
  GI50: 133 nM
  TGI: 555 nM
SN12C renal
  GI50: 593 nM
  TGI: > 100000 nM
SW-620 colon
  GI50: 44.4 nM
  TGI: > 100000 nM
M14 melanoma
  GI50: 34.9 nM
  TGI: 1170 nM
RPMI-8226 leukemia
  GI50: 109 nM
  TGI: 1950 nM
NCI-H23 lung
  GI50: 233 nM
  TGI: 3040 nM
BT-549 breast
  GI50: 61.5 nM
  TGI: 4180 nM
CCRF-CEM leukemia
  GI50: 59.2 nM
  TGI: > 100000 nM
